These results are taken from US20240285525A1, “METHODS AND MATERIALS FOR TREATING CANCER” (The Johns Hopkins University, priority 2021, published 2024).

The test system of data set [1] is M2 macrophages from primary CD14+human monocytes. Put plainly: Macrophage gene expression via RT-qPCR. It counts as cell-based. The note with it: 1 μM TS free or in nanotubes, or empty nanotubes; compared to untreated M2-macrophages. Here is the method: Freshly isolated primary CD14+human monocytes were plated at a density of 500,000 cells/well in the presence of 50 ng/mL of M-CSF (macrophage colony stimulating factor) to differentiate them to MO-macrophages. The media were renewed with the same composition (DMEM+10% FBS+1% Penicillin-Streptomycin+50 ng/mL M-CSF) every 2-3 days until complete differentiation. The macrophages were treated with 20 ng/mL of IL-4 for 3 days differentiate them to an M2-phenotype.
Cells were detached using 1× Tryp1E Express Enzyme (ThermoFisher Scientific) and washed with PBS. TRIzol (ThermoFisher Scientific) was added to the cells followed by absolute ethanol. mRNA was collected in Zymo-Spin IC columns (Zymo Research) by centrifuging the cell solution in the spin columns. The mRNA was washed and resuspend in RNAse and DNAse free water. After evaluating the mRNA concentration, the cDNA reaction mixture was prepared by adding the mRNA to nuclease-free water, iScript Reverse Transcriptase (Bio-Rad) and 5× iScript Reaction Mix. The cDNA reaction was performed using TurboCycler Lite Thermal Cycler (Blue-Ray Biotech). The cDNA was then aliquoted and added to a mixture of primers for the genes 1112b, 118, Nos2, 1110, Tgfb1 and Fizz1 respectively along with iTaq™ Universal SYBR® Green Supermix (Bio-Rad). […] Data was analysed using the ΔΔCt method. […]
(In general: In qPCR the cycle at which signal appears reflects the starting amount.)

Data set [2] deals with GL261 cells. Put plainly: Inhibition of endocytosis (nanotube uptake, flow cytometry). It counts as cell-based, mouse. The conditions noted are these: inhibitor 30 min then nanotubes 3 hours, 30 μg/mL DMA, 500 μg/mL fucoidan, 10 μM LatB. Here is the method: 200,000 GL261 cells were plated per well in 12-well plates and incubated at 37° C. and 5% CO2 overnight. The following day, media was replaced with fresh media, and inhibitor stock solutions were diluted and delivered to the cells at targeted concentrations: 1.25 μg/mL cytochalasin D (CytD), 10 μM latrunculin B (LatB), 15 μg/mL nocodazole, 5 μg/mL fillipin, 2.5 μg/mL nystatin, 1.32 mg/mL methyl-β-cyclodextrin (MPCD), 2.5 μg/mL chlorpromazine (CPZ), 12.5 μg/mL dynasore, 0.2 μg/mL pertussis toxin (PTX), 2 μg/mL cholera toxin (CTX), 30 μg/mL 5-(N,N-dimethyl)-amiloride hydrochloride (DMA), and 500 μg/mL fucoidan. Cells with no inhibitor were used as positive controls. Plates were gently shaken by hand to ensure even distribution of inhibitors, and placed in the incubator for 30 minutes. […] Cells were washed twice with 1 mL PBS, trypsin-EDTA at 37° C. was added to each well, the contents of each well were individually mixed via up and down pipetting and transferred to 1.5 mL centrifuge tubes. Cells were washed twice with PBS, reconstituted in 500 μL PBS and transferred to flow cytometry tubes. 5 μL of 10 μg/mL propidium iodide (PI) solution was added to each tube and vortexed. The cells were run on a BD FACSCanto flow cytometer and were examined for PI and HEX fluorescence via excitation at 488 nm with a 585/42 filter. Cells were gated by PI staining to select for live cells, and by scattering (FSC-A and SSC-A) to select for single cells. To evaluate cytotoxicity of inhibitors, 10,000 GL261 cells were plated in 96-well plates and incubated overnight in a 37° C. 5% C02 incubator. The next day, media was replaced with fresh formulated media, and inhibitor stock solutions were diluted and delivered to the cells at concentrations mentioned above. Plates were gently shaken by hand and placed in the incubator for 3 hours. Cell viability was measured using CellTiter-Glo 2.0 assay (Promega, Madison, WI) following the manufacturer's protocol. Luminescence was recorded using a Synergy H1 microplate reader (Biotek, Winooski, VT), and cell viability was normalized to untreated cells.
Background: Flow cytometry measures light scatter and fluorescence of single cells or particles in a stream.

The nature of data set [3]: Histopathological analysis of organs (H&E). It counts as in vivo, mouse. The source says:
8 week old mice were used for this study. […] The photon counts within each ROI were quantified.
Following perfusion and fixation with 10% neutral buffered formalin, tissues were processed into paraffin blocks using standard histology techniques, sectioned at a thickness of […], stained with hematoxylin and eosin (H&E), and evaluated using light microscopy.

Data set [4] relates to GL261-Luc orthotopic tumor. Put plainly: Intracranial delivery via CED in orthotopic GL261-Luc mouse model.
In data set [5] the test system is GL261 cells. Put plainly: Cell viability (CellTiter-Glo 2.0). It counts as cell-based, mouse. The note with it: 12 hours + 36 hours at 37° C.; NT 5-6.4 μM ssDNA-amphiphiles, DOX 5 μg/mL, NT-DOX same concentrations; normalized to untreated. How it is done:
The samples were incubated with cells for 12 hours at 37° C., followed by a single wash with PBS. 100 μL of fresh media was added, and cells were incubated at 37° C. for an additional 36 hours. […] The luminescence signal of each well was measured, and the luminescence of each group was normalized to the luminescence of the untreated cells.

Consider `C=C(NC(=O)C(=C)NC(=O)c1csc(C2=N[C@@H]3c4csc(n4)[C@H]4NC(=O)c5csc(n5)[C@H]([C@](C)(O)[C@@H](C)O)NC(=O)[C@H]5CSC(=N5)/C(=C/C)NC(=O)[C@H]([C@@H](C)O)NC(=O)c5csc(n5)[C@]3(CC2)NC(=O)[C@H](C)NC(=O)C(=C)NC(=O)[C@H](C)NC(=O)[C@H]([C@@H](C)CC)N[C@@H]2C=Cc3c([C@H](C)O)cc(nc3[C@H]2O)C(=O)O[C@@H]4C)n1)C(N)=O` [free TS, thiostrepton], for which, in data set [1], the “expression of genes associated with M2-like macrophages (ΔΔCt)” value is listed as “successful at downregulating genes associated with M2-like macrophages” and the “expression of genes of M1-like macrophages (ΔΔCt)” value is “upregulating genes of M1-like macrophages”.

On to `C/C1=C/C(=O)O[C@@H]2C[C@@H](CC[C@H](C)/C=C\CC1)O[C@@](O)([C@@H]1CSC(=O)N1)C2` [LatB, latrunculin B], for which, in the data set on GL261 cells [2], the “inhibition of cellular uptake of the nanotubes” value (“inhibition” for short) came out at 20%.

For `COc1cccc2c1C(=O)c1c(O)c3c(c(O)c1C2=O)C[C@@](O)(C(=O)CO)C[C@@H]3O[C@H]1C[C@H](N)[C@H](O)[C@H](C)O1.Cl` [DOX, Doxorubicin-hydrogen chloride], in data set [3], the histology of liver result is “multifocal areas of hepatocyte degeneration and necrosis”; the histology of spleen entry was “diffuse, moderate to marked depletion of the spleen white pulp associated with zonal lymphocytic apoptosis and necrosis”. Also, in data set [3] (compared to the PBS control), the “histology of lung, kidney and heart tissues” value was “no significant findings”. In data set [4] (after 28 days), this compound had a body weight gained of 6%. For the same compound, in data set [4] (day 28, pump 70 μM DOX (0.2 mg DOX/Kg mouse), about 14 days, 0.25 μL/hour), the “decrease in tumor signal (bioluminescence)” value turned out to be 80%. This compound also gave a median survival time in data set [4] (n=9-10 per group, NT 95 μM ssDNA-amphiphiles, DOX 70 μM) of 34.5 days. Besides, the “viability of GL261 cells” value with GL261 cells [5] was 47±6%.

Take fucoidan: in the data set with GL261 cells [2], the “inhibition” value came to 57%.

Consider `CN(C)c1nc(N)c(C(=O)N=C(N)N)nc1Cl.Cl` [DMA, 5-(N,N-dimethyl)-amiloride hydrochloride], for which the “inhibition” value in the data set with GL261 cells [2] came to 44%.
